Test results as given in US12338484B2, “FRET biosensor for detecting and reporting NAD+/NADH ratio changes” (Sartorius BioAnalytical Instruments, Inc., priority 2022, dated 2025).

Key:
Format in all cases: biochemical
Parameters in all cases: key: Good response: Constructs with very clear and robust spectra separation; Poor response: those with noticeable but small spectra separation; No response: those having no spectra separation
[1] = biological target: T1, Thermus aquaticus T-Rex FRET fusion, initial construct #2, Rex(78-189)-cpmEGFP(145/146)-Rex(190-211)-Rex(78-211)-mKOk, SEQ ID NO: 162 (Thermus aquaticus, UniProt Q9X2V5, INS189[…]); assay: FRET response (emission spectra) of purified initial construct #2 in absence or presence of 40 uM NADH
T1 construct: His-tag purified from E. coli
Protocol: (§1) 16 initial FRET constructs (See Table 3) were constructed using expression vector pET28c with a T7 promoter and lac operator and expressed in E. coli. Cells were collected and lysed using a commercially-available lysis buffer. Proteins of interest were isolated from the lysates using Ni-NTA magnetic beads. Eluted proteins were subjected to buffer exchange and final protein concentrating. To test performance of the initial FRET constructs, their emission spectra was recorded on a plate reader in absence or presence of 40 uM NADH. Resulting emission spectra with or without the ligand were normalized and overlaid for each construct. Constructs with very clear and robust spectra separation were labeled as having “good response”, those with noticeable but small spectra separation were labeled as having “poor response”, and finally those having no spectra separation were labeled as having “no response”.

[2] = biological target: Thermus aquaticus T-Rex FRET fusion, initial construct #16, Rex(A)-mKOk-Rex(B)-mEGFP, SEQ ID NO: 176 (Thermus aquaticus, UniProt Q9X2V5, E116G/F189I/K117M/K204T/K47E/R46D/R58D/S30A/Y98W); assay: FRET response (emission spectra) of purified initial construct #16 in absence or presence of 40 uM NADH
Protocol: as §1

[3] = biological target: Thermus aquaticus T-Rex FRET fusion, initial construct #15, mEGFP-Rex(A)-mKOk-Rex(B), SEQ ID NO: 175 (Thermus aquaticus, UniProt Q9X2V5, E116G/F189I/K117M/K204T/K47E/R46D/R58D/S30A/Y98W); assay: FRET response (emission spectra) of purified initial construct #15 in absence or presence of 40 uM NADH
Protocol: as §1

SMILES: NC(=O)C1=CN([C@@H]2O[C@H](COP(=O)(O)OP(=O)(O)OC[C@H]3O[C@@H](n4cnc5c(N)ncnc54)[C@H](O)[C@@H]3O)[C@@H](O)[C@H]2O)C=CC1 [NADH]
- FRET response to NADH [1]: Poor response
- FRET response to NADH [2]: Good response
- FRET response to NADH [3]: No response
